Reference: paper PMC6504873, “High-throughput screening of the Plasmodium falciparum cGMP-dependent protein kinase identified a thiazole scaffold which kills erythrocytic and sexual stage parasites” (Scientific Reports, 2019)
In brackets after ≈: the same amount, converted by molar mass.

Tests used:
[1] = Aqueous kinetic solubility assay (CAD); assay type: physicochemical; details: several values in a cell = replicates
Experimental: […] of 10 mM DMSO compound solution is diluted to 100 μl with pH7.4 phosphate buffered saline, equilibrated for 1 hour at room temperature and filtered through Millipore MultiscreenHTS-PCF filter plates (MSSL BPC). The filtrate is quantified by suitably calibrated Charged Aerosol Detector[56].

LCK = LCK (Homo sapiens, UniProt P06239); test: Preliminary safety test on human LCK kinase; assay type: biochemical
Sequence of LCK (P06239 whole entry): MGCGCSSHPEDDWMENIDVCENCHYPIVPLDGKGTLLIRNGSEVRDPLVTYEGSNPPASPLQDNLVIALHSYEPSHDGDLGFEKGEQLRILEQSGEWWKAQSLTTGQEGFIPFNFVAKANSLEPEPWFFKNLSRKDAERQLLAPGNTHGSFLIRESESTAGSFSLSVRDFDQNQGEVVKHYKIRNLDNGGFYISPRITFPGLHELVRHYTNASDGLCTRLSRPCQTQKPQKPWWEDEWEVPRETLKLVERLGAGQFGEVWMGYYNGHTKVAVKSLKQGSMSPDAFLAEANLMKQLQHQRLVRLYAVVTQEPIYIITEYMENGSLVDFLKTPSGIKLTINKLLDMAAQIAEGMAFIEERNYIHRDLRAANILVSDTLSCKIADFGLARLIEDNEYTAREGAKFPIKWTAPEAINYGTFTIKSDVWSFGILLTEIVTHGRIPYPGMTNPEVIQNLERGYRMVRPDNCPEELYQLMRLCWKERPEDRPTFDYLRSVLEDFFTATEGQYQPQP
Experimental: We explored the binding mode by also testing compounds on the gatekeeper mutant enzyme TQ PfPKG. […] A preliminary safety test was performed on human AuroraB and LCK kinases which often underpin toxicity issues. […] Further assays for compound characterization included determination of solubility and cytotoxicity (HepG2 inhibition).

WT PfPKG = target: T1, WT PfPKG (Plasmodium falciparum, UniProt Q8I719); test: Kinase Glo enzymatic assay, recombinant WT PfPKG; assay type: biochemical, P. falciparum
T1 construct: recombinant full length wild type (WT) PfPKG; His6 (N); host or cells: E. coli BL21
T1 sequence (Q8I719 whole entry): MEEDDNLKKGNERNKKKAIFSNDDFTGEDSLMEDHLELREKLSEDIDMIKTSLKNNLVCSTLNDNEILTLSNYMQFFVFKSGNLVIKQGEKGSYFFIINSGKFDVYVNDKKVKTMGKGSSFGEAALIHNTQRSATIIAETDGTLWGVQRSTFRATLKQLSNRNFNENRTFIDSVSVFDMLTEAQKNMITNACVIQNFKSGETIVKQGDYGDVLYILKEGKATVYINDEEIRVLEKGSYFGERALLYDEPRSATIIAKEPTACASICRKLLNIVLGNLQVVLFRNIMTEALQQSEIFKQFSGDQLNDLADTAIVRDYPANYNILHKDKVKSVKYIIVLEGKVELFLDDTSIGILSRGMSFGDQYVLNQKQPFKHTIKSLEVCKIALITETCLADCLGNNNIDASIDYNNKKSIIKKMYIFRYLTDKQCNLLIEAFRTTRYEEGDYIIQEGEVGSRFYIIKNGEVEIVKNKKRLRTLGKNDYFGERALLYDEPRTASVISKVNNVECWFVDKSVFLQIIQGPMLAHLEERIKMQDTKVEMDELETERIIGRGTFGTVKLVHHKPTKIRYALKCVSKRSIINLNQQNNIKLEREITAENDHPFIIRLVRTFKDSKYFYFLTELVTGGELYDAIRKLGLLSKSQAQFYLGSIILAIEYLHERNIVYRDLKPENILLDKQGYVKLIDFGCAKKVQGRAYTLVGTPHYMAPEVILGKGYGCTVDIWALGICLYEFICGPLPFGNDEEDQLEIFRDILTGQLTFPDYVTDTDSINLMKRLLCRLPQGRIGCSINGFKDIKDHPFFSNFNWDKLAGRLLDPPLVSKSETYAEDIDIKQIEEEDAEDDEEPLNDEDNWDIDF
Experimental: To identify new PKG inhibitor scaffolds, the 1.7 million GlaxoSmithKline Full Diversity collection was tested at a single final concentration of 10 μM against recombinant full length wild type (WT) PfPKG using a Kinase Glo-based assay (Promega). The results gave a robust Z′ mean value of 0.85. At an average statistical cut-off of 30%, 20,174 primary hits were identified with an overall hit rate of 1%. Fresh samples of these primary hits were tested in duplicate against WT PfPKG and also against human PKGIα (HuPKGIα) (Supplementary Fig. 1) at a final concentration of 10 μM (confirmation step).
Protein production was outsourced to the Division of Signal Transduction Therapy, University of Dundee. Briefly, the pTRChis expression vectors (Invitrogen) containing an N-terminally His6-tagged PfPKG wildtype and T618Q were used to transform BL21 cells (protocol adapted from[23]). The cells were grown at 37 °C until the OD600 was 0.4–0.6 then the temperature was reduced to 15 °C and the cells were induced with 250 µM IPTG and grown for a further 16–18 hours before harvesting. The His6-PfPKG was purified on Cobalt agarose followed by gel filtration and the protein was dialysed into 25 mM Hepes pH 7.5, 0.1 mM EGTA, 150 mM NaCl, 50% glycerol and 2 mM DTT.
Initial optimization of the PKG assay was performed manually in 384-well plates and analysed with GraFit 7. The buffer for all assays was 25 mM HEPES pH 7.3 (GIBCO), 10 mM MgCl2 (Sigma), 2 mM DTT (Sigma), 0.01 mM cGMP (Sigma), 0.1 mg/ml BSA (Ambion). Enzymatic activity was tested using a luminescence-based kit (Promega KinaseGlo). Addition of the first reagent depletes the unused ATP and addition of the second reagent converts ADP (product of the kinase reaction) to ATP, which is then measured through a luciferin/luciferase reaction. The amount of luminescence is directly proportional to ATP turnover by the kinase. The kit was chosen because it can be miniaturized to small volumes (i.e. 4 µl) in 1536-well plates, for use in HTS.
We used PKA peptide substrate (SCP0212, Sigma-Aldrich) for WT and TQ PfPKG, dissolved in milliQ water at a final concentration of 5 mM, and Long S6 peptide substrate (produced at the University of Dundee, sequence […]) for HuPKGIα, dissolved in water at a final concentration of 30 mM.
We calculated the Michaelis-Menten (Km) constant for ATP and peptide substrate (PKA or Long S6) for all enzymes using GraphPad Prism (Supplementary Figs 2 and 3 and Supplementary Table 3). In order to identify different types of PKG inhibitors, including ATP competitive or non-competitive inhibitors, as well as inhibitors that bind to the peptide substrate pocket, we performed all assays using ATP and peptide substrate at a concentration equal to the Km. We also determined enzyme activity by calculating ATP turnover (Kcat) over the Km (Supplementary Table 3). The Kcat was calculated as (Vmax*slope)/[E] where Vmax is the maximum velocity and [E] is the concentration of the enzyme.
The plates containing the compounds were prepared at GSK in Upper Providence or Stevenage. Compounds were tested at a single final concentration of 10 µM or in a dose response with a range of concentrations starting from 100 μM to 1.6 nM (1 in 3 serial dilutions). Compounds were dispensed in the plates at the required concentration in a 40 nl volume. All plates (1536-well white Greiner) contained 40 nl of DMSO in lanes 11 and 12 (control 1, 100% enzyme activity) and were empty in lanes 35 and 36 (control 2, 0% enzyme activity). The plates were removed from −20 °C 1 hour before starting the assay. Using a Multidrop Combi dispenser (Thermo Scientific), 2 µl of the buffer containing ATP and the substrate were added to all wells then 2 µl of buffer only were added to column 35 and 36. Finally 2 µl of buffer containing the enzyme were dispensed in all the plate wells except for lanes 35 and 36. […]

[2] = phosphate buffered saline, pH 7.4, aqueous buffer, kinetic from dmso stock
[3] = WT PfPKG (μM), recombinant WT PfPKG

For CNCCOc1cnc(-c2ccoc2C)c(-c2ccc3cnccc3c2)c1 [Compound 13], which solubility at 1 h [1, 2] is on record?
The solubility at 1 h was 418 µM (≈ 150 µg/mL).

And the IC50 (LCK)?
The IC50 was 1300 nM.

What about the IC50 (WT PfPKG; [3]) of the same molecule?
Its IC50 is 0.007 µM.

With Cc1ccc(S(C)(=O)=O)cc1Nc1nccc(-c2sc(CC(N)=O)nc2-c2ccccc2)n1 [Compound 3] as the molecule, how does the solubility at 1 h [1, 2] read?
The solubility at 1 h was 138 µM (≈ 66.2 µg/mL).

What about the solubility at 1 h [1] of the same molecule?
The solubility at 1 h was 124 µM (≈ 59.5 µg/mL).

What about the IC50 (LCK) of the same molecule?
The IC50 was 251 nM.

What about the IC50 (WT PfPKG; [3]) of the same molecule?
Its IC50 is 0.013 µM.

What does the source list for CC(C)(CN)c1cc(-c2ccc(Cl)c(O)c2)c(-c2ccncc2)o1 [Compound 4]?
solubility at 1 h [1, 2]: 252 µM (≈ 86.4 µg/mL); IC50 (LCK): 126 nM; IC50 (WT PfPKG; IC50 (WT PfPKG activity), Figure 3, most scored compound of each cluster and singletons): 0.002 µM; IC50 (WT PfPKG; [3]): 0.0017 µM

For COc1cccc(Nc2nc(-c3ccncc3)cc(N3CCN(C)CC3)n2)c1 [Compound 9], which solubility at 1 h [1, 2] is on record?
Its solubility at 1 h is 82 µM (≈ 30.9 µg/mL).

And the IC50 (LCK)?
Its IC50 is greater than 31600 nM.

And the IC50 (WT PfPKG; [3])?
Its IC50 is 0.027 µM.

Which solubility at 1 h [1, 2] does the source give for COc1ccc(CCNC(=O)CSc2ncnc3[nH]ncc23)cc1OC [Compound 8] here?
The solubility at 1 h was 254 µM (≈ 94.9 µg/mL).

What about the IC50 (LCK) of the same molecule?
The IC50 was greater than 31600 nM.

What about the IC50 (WT PfPKG; [3]) of the same molecule?
Its IC50 is 0.104 µM.

Which solubility at 1 h [1, 2] does the source give for CNS(=O)(=O)c1cccc(Nc2ccnc(Nc3cccc(S(=O)(=O)NC)c3)n2)c1 [Compound 6] here?
Its solubility at 1 h is 180 µM (≈ 80.7 µg/mL).

What about the IC50 (LCK) of the same molecule?
Its IC50 is 2000 nM.

What about the IC50 (WT PfPKG; [3]) of the same molecule?
Its IC50 is 0.07 µM.

Which IC50 (LCK) does the source give for NCCNCc1ccc(-c2cc3ccncc3cc2OC2CCNCC2)s1 [Compound 12] here?
Its IC50 is 4000 nM.

And the IC50 (WT PfPKG; [3])?
The IC50 was 0.324 µM.

For O=C(c1cccc(OCc2cccnc2)c1)N1CCc2sccc2C1CN1CCCCC1 (stereo not shown) [Compound 14], which solubility at 1 h [1, 2] is on record?
Its solubility at 1 h is 168 µM (≈ 75.2 µg/mL).

And the IC50 (LCK)?
The IC50 was greater than 31600 nM.

And the IC50 (WT PfPKG; [3])?
The IC50 was 0.036 µM.

With Nc1ccc2c(-c3ccncc3)c(-c3ccc(Cl)c(O)c3)[nH]c2n1 [Compound 15] as the molecule, how does the IC50 (LCK) read?
Its IC50 is 5000 nM.

And the IC50 (WT PfPKG; [3])?
The IC50 was 0.022 µM.

For CCn1cc(-c2ccncn2)c(-c2cccc(NS(=O)(=O)c3cc(F)ccc3F)c2)n1 [Compound 2], which solubility at 1 h [1, 2] is on record?
The solubility at 1 h was 412 µM (≈ 182 µg/mL).

What about the IC50 (LCK) of the same molecule?
The IC50 was 7900 nM.

And the IC50 (WT PfPKG; [3])?
The IC50 was 0.041 µM.

Which solubility at 1 h [1, 2] does the source give for O=C(N[C@@H](CO)c1ccccc1)c1ccc2cncc(-c3cn[nH]c3)c2n1 [Compound 11] here?
Its solubility at 1 h is 4 µM (≈ 1.44 µg/mL).

And the IC50 (LCK)?
The IC50 was 1000 nM.

What about the IC50 (WT PfPKG; [3]) of the same molecule?
The IC50 was 0.094 µM.

With COc1cc(CS(C)(=O)=O)ccc1Nc1nc(Nc2cc(F)ccc2C(N)=O)c2cc[nH]c2n1 [Compound 10] as the molecule, how does the IC50 (LCK) read?
The IC50 was greater than 31600 nM.

And the IC50 (WT PfPKG; [3])?
Its IC50 is 0.05 µM.

With Nc1nc(Nc2cccc3cnccc23)nn1C(=O)C1CCCCC1 [Compound 16] as the molecule, how does the solubility at 1 h [1, 2] read?
Its solubility at 1 h is 69 µM (≈ 23.2 µg/mL).

What about the IC50 (LCK) of the same molecule?
The IC50 was greater than 31600 nM.

And the IC50 (WT PfPKG; [3])?
Its IC50 is 0.09 µM.

For CCn1c(-c2nonc2N)nc2c(-c3ccccc3)ncc(CN(C)C3CCN(C)CC3)c21 [Compound 5], which IC50 (LCK) is on record?
The IC50 was 12600 nM.

What about the IC50 (WT PfPKG; [3]) of the same molecule?
The IC50 was 0.039 µM.

Which results are given for COc1ccc(-c2c(-c3cccc(C(=O)N4CCN(C)CC4)c3)oc3ncnc(N)c23)cc1 [Compound 7]?
solubility at 1 h [1, 2]: 180 µM (≈ 79.8 µg/mL); IC50 (LCK): 400 nM; IC50 (WT PfPKG; [3]): 0.01 µM
